Measurements taken from US20240207265A1, “TREATMENT OF CNS DISEASES WITH sGC STIMULATORS” (Tisento Therapeutics Inc., priority 2021, published 2024).

Columns and labels:
sGC enzyme = assay: cGMP GloSensor cell-based assay, 384-well format (HEK293); parameters: species or system human; details: HEK293 GloSensor 40F cGMP cells, 10 μM DETA-NONOate, geometrical mean; read-out: Glo EC50
Description: Human embryonic kidney cells (HEK293) cells expressing GloSensor™ 40F cGMP (Part No: CS182801, Promega) were used to evaluate the activity of test compounds. The luminescent biosensors (engineered luciferase) that were incorporated into these cells detect cGMP formed by the compounds stimulating the sGC enzyme and emit luminescence.
cGMP GloSensor cells were maintained in Dulbecco's Modification of Eagle's Medium (DMEM) supplemented with fetal bovine serum (FBS, 10% final) and hygromycine (200 ug/ml). The day before assay, cells were plated in DMEM with 10% FBS in a 50 μL volume at a density of 1.5×10^4 cells/well in a poly-D-lysine coated 384-well flat white-bottom plate (Corning Cat No 35661). Cells were incubated overnight at 37° C. in a humidified chamber with 5% CO2. The next day, medium was removed and cells were replaced with 40 ul/well of GloSensor™, 2 mM (Promega Cat No E1291). Cells were treated for 90 minutes at 25° C. to allow the substrate to equilibrate in the cells. Test compounds and Diethylenetriamine NONOate (DETA-NONOate) was diluted to 3 mM (20×) in serum-free CO2 independent medium and serially diluted at 4× dilutions to create 5× dose curve from which 10 ul was added to the wells (x μM concentration for test compound solution and 10 μM concentration for DETA-NONOate solution; wherein x is one of the following final concentrations: 30 μM, 7.5 μM, 1.9 μM, 469 nM, 117 nM, 29.3 nM, 7.3 nM, 1.83 nM, 0.46 nM, 0.11 nM, 0.03 nM) For the kinetics studies, luminescense was measured right away for 0.2 sec per well with Envision (Perkin Elmer). For endpoint SAR screening, data were collected after 55 min incubation at room temperature.
(§1) Concentration response data were analyzed using a 4-parameter fit (log (agonist) vs. response-variable slope). The EC50 was interpolated from the curve fit and is defined as the concentration at which the compound elicits 50% of its maximal response. When the experiment was carried out multiple times for a given compound, the geometrical mean of all experiments is reported.

human α2β1 sGC isozyme = target: T1, human α2β1 sGC isozyme (Homo sapiens, UniProt P33402+Q02153); assay: cGMP assay in CHO-K1 cells stably expressing human α2β1 sGC isozyme; assay type: cell-based; details: 10 μM DETA-NONOate
T1 construct: host or cells: CHO-K1
T1 sequence (P33402 1-732): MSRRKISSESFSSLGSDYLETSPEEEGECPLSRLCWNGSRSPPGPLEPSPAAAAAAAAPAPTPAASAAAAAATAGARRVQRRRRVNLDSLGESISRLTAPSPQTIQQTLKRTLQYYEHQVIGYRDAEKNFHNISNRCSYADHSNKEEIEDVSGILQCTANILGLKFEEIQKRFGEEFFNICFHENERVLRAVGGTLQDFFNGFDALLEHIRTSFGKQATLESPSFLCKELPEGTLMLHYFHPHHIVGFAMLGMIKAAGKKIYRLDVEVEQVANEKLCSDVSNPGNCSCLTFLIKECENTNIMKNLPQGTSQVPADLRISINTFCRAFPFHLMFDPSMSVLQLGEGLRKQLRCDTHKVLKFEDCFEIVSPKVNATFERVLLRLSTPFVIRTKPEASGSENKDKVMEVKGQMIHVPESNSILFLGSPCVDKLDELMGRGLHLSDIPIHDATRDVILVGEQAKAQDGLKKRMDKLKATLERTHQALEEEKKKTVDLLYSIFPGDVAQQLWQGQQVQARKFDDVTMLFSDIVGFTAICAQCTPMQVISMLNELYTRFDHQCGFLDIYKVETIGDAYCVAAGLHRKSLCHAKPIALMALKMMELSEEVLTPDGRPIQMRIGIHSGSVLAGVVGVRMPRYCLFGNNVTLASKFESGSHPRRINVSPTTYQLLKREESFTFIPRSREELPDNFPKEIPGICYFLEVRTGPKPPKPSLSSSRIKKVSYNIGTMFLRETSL
T1 sequence (Q02153 1-619): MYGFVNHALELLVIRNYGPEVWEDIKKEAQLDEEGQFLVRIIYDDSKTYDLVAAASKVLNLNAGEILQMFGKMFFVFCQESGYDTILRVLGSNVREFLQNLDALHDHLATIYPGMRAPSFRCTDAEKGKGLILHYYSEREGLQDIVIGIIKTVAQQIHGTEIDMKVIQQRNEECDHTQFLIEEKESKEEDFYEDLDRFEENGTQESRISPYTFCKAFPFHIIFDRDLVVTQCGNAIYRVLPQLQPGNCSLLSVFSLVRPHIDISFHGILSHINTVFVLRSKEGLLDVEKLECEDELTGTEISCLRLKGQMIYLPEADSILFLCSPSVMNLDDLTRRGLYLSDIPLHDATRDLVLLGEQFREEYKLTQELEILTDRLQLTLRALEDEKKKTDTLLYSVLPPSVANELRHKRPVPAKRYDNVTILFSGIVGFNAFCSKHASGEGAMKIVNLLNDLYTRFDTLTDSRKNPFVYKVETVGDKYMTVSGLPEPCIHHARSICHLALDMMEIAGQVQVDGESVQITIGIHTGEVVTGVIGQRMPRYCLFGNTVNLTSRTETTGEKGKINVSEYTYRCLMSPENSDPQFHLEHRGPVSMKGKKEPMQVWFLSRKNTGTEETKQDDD
Description: sGC stimulators were dissolved in DMSO as a 10 mM solution and stored at −20° C. To achieve desired test concentrations, stock concentrations were serially diluted into DMSO and then diluted to the appropriate concentration in assay buffer.
CHO-K1 cells stably transfected with human α2β1 sGC isozyme (generated by GenScript for Ironwood) were cultured in F-12K medium (ATCC catalog #30-2004) with 10% fetal calf serum, 4 μg/mL puromycin (Gibco catalog #A11138-03) and 0.4 mg/mL of geneticin (Gibco catalog #10131-027) in a 95% humidified atmosphere containing 5% CO2 in air at 37° C. For GC activity assays, cells were seeded in 384 well poly-D-lysine coated flat bottom plates (Fisher Scientific #08-774-311) in either 50 μL or 70 μL medium at a density of either 3×10^4 cells/well or 15×10^3, respectively. Cells were incubated for 24 hours at 37° C. in a humidified chamber supplemented with 5% CO2.
For each test concentration, the compound was diluted in 100% DMSO to 100-fold of its final assay concentration. Immediately prior to the assay, the solution was diluted 20-fold into HBSS containing calcium, magnesium, and 50 μM DETA-NONOate (5× the final assay concentration). Medium was removed and cells were washed once with 40 μL of HBSS. Cells were then incubated with 40 μL of a solution containing 0.5 mM IBMX in HBSS for 15 min at 37° C. 10 μL from the sGC stimulator/HBSS/DETA-NONOate plate was added to the cells, which were incubated for an additional 20 min at 37° C. Final DMSO concentration was 1%, final DETA-NONOate concentration was 10 μM; and final compound concentrations were 30,000 nM, 6000 nM, 1200 nM, 240 nM, 48 nM, 9.6 nM, 1.92 nM, 0.384 nM, 0.077 nM, 0.015 nM, or 0.003 nM.
Following incubation with compound, assay buffer was removed and 50 μL of ice-cold 10% acetic acid+150 ng/mL internal standard (+3 cGMP) was added to each well. Samples were incubated on ice for 30-60 min. Following centrifugation at 4° C. for 5 min at 1000×g to pellet cell debris, the supernatant was transferred to a clean plate and the samples analyzed for cGMP content.
as §1, with “Data” for “Concentration response data”, “with” for “using”, “(log(agonist)” for “(log (agonist)”, “slope) using GraphPad Prism Software v.8.” for “slope).”

- EC50 (sGC enzyme): ≤ 100 nM
- EC50 (human α2β1 sGC isozyme): ≤ 100 nM
SMILES: Cc1cc(F)c(Cc2nc(-c3ncc(Cl)c(O)n3)cn3ccnc23)cc1F [Compound I-17, 5-Chloro-2-(8-(2,5-difluoro-4-methylbenzyl)imidazo[1,2-a]pyrazin-6-yl)pyrimidin-4-ol]
